# Experimental data reported in article PMC10652874, “Investigation into the mechanism of action of the antimicrobial peptide epilancin 15X” (Frontiers in Microbiology, 2023).
# Experiments:
# S. carnosus TM300 [1] = assay: Membrane permeability study with propidium iodide (flow cytometry); format: cell-based, Staphylococcus carnosus; details: S. carnosus TM300, 20 min exposure, 0.5x, 1x, 4x MIC, n = 3
# Procedure: Cultures of S. carnosus TM300 and B. subtilis BSF2470 were grown to OD600 1.0 and diluted to OD600 0.1 in fresh BHI or LB medium, respectively. The culture was then combined with a final concentration of 25 μM PI (ThermoFisher P3566), 1 mM HEPES, and 1 mM glucose. […] Another two tubes were prepared without antibiotic treatment as controls. The culture was analyzed with a BD Biosciences LSR II flow cytometer for S. carnosus and a BD Biosciences LSRFortessa for B. subtilis using excitation at 488 nm with an argon laser and measurement of emission through a band-pass filter at 695/40 nm. A minimum of 30,000 events were detected for each sample. The experiment was repeated three times, and the mean PI uptake value was determined. The results were calibrated such that the mean PI uptake from the 4x MIC nisin-treated cell culture was set as 100% PI uptake.
# [2] = test system: DNA biosynthesis in S. carnosus TM300; assay: Macromolecular synthesis assay: 14C-thymidine incorporation into DNA; format: cell-based, Staphylococcus carnosus; details: S. carnosus TM300, 2× MIC, three independent experiments
# Procedure: Radiolabel incorporation experiments were carried out similarly as previously described but using S. carnosus ([Wu et al., 2019]). The OD600 of parallel nonradioactive cultures was measured at each time point to normalize the measured radioactivity and minimize effects due to cell death and growth inhibition. The radiolabeled reagents and their corresponding positive and negative antibiotic controls were as follows. […] All experiments were conducted independently three times.
# Figure S3. Thre e in de pen den t ex perime nts of incorporation of (A) 14C- acetic acid into fatty acids, (B) 14C- thymi din e into D NA, (C) 3H-uridi ne into RNA, (D) 14C- lab el ed ami no acids into protei n, and (E) 14C- label ed GlcNAc into cell w all in S. carnosus TM300 cells treated with vario u s antimicro bia l agents. T he p ercent i nco rpo ratio n at 0 min was measured after incubati ng the cel l cultur e with 0.8 μCi/mL radioactive precursors for 15 min. Then 0.5x, 1x, 2x, or 4x MIC epilanci n 15X and 2x MIC controls were added to the cell cultur e (t=0), and t he percent incorporation was measur ed ov er time. Positive controls a re gr een and negative controls are black (cells o nly) an d blu e (co mpo und w ith mo d e o f actio n unr elate d to th e a ssay i n que stio n). […]
# S. carnosus TM300 [3] = assay: Bright field (Airyscan) microscopy; format: cell-based, Staphylococcus carnosus; details: S. carnosus TM300, 0.5 MIC
# B. subtilis 168 = assay: MIC determination in 96-well microtiter plate; format: cell-based, Bacillus subtilis; details: LB, 37°C, 10^5 CFU/mL, OD600 after 18 h
# Procedure: (§1) MIC determination was performed in a 96-well microtiter plate as described previously ([Wu et al., 2019]). Sensitive bacterial culture was grown in the appropriate medium (BHI for S. carnosus; LB for B. subtilis) at 37°C overnight. The culture was diluted to 10^5 CFU/mL in medium in each well. Epilancin 15X or its analog was dissolved in water and serially diluted to obtain final concentrations of 20, 10, 5, 2.5, 1.25, 0.625, 0.3125, 0.156, 0.078, 0.039, 0.019, and 0.009 μM. OD600 readings were obtained after 18 h using a Synergy H4 Hybrid Multi-Mode Microplate Reader (BioTeK). Cell-free untreated medium, and untreated cell culture were used as negative controls. The MIC of nisin against B. subtilis BSF2470 was determined following the same methods.
# [4] = test system: B. subtilis BSF2470 (1A980); assay: MIC determination in 96-well microtiter plate; format: cell-based, Bacillus subtilis; details: LB, 37°C, 10^5 CFU/mL, OD600 after 18 h
# Procedure: as §1
# B. subtilis ATCC 6633 = assay: MIC determination in 96-well microtiter plate; format: cell-based, Bacillus subtilis; details: LB, 37°C, 10^5 CFU/mL, OD600 after 18 h
# Procedure: as §1
substance,measurement,setting,value
Epilancin 15X,PI uptake (membrane disruption),S. carnosus TM300 [1],increase
same,DNA biosynthesis (14C-thymidine incorporation),[2],considerably stronger effect than that observed with the respective negative controls
same,aggregation phenotype of cells (brightfield),S. carnosus TM300 [3],Aggregation and chaining of cells was observed
same,MIC,B. subtilis 168,4.00 µM
same,MIC,[4],2.5 µM
same,MIC,B. subtilis ATCC 6633,1.25 µM
